Measurements: paper PMC9728284, “Inhibition of Herpes Simplex Viruses, Types 1 and 2, by Ginsenoside 20(S)-Rg3” (Journal of Microbiology and Biotechnology, 2019)
“And” between values parts separate entries of the source, which are not always exact repeats. Identical values can stand only once.

Columns and labels:
[1] = test system: HSV-1; test: HSV-1 inhibition in Vero cells (PrestoBlue, compound and virus added simultaneously); assay type: cell-based, Herpes simplex virus type 1 (MacIntyre strain); details: for IC50: Human alphaherpesvirus 1, two-fold dilutions, linear regression, Vero cells, read-out: IC50 against HSV-1
Description: (§1) Herpes simplex virus type 1 (HSV-1, MacIntyre strain, ATCC, VR-539) or herpes simplex virus type 2 (HSV-2, ATCC, VR-734) were used in these studies. Virus titer was determined by plaque assay. Briefly, following 2 h adsorption of various virus dilutions onto a Vero cell monolayer in a 24-well plate, the medium was removed and cells were overlaid with 1.5% carboxymethylcellulose (Sigma) and incubated 48 h at 37°C with 5% CO2. After incubation, cells were fixed with methanol, stained with Giemsa (Sigma) and plaques were counted. Each virus dilution was prepared in quadruplicate.
(§2) All ginsenosides, isomers, and protopanaxadiols were evaluated for toxic effects on Vero cells prior to anti-viral testing. Cells were seeded at 5,000 cells/well in a black 96-well plate with clear bottom in a volume of 100 µl and allowed to attach for 24 h. The P. ginseng compounds were prepared in DMSO at 100 µM and were taken through serial two-fold dilutions to determine the concentration when the rate of cell death was less than 10%compared to control, untreated cells. Each dilution was tested in three wells and all assays were repeated three times. Following 48 h incubation at 37°C in 5% CO2, 11 µl of PrestoBlue (Invitrogen) was added to each well and the plate was incubated for an additional 30 min. PrestoBlue determines cell viability by changing from blue to red as resazurin is reduced to resorufin by viable cells. Following the PrestoBlue incubation, fluorescence was determined by spectrophotometric reading using Soft Max Pro (Molecular Diagnostics, USA).
(§3) For cytotoxicity testing, 4 µl of dilutions of the ginsenosides or protopanaxadiols were added to 396 µl of medium 199 and 100 µl of this mixture was added to each of three wells. For anti-viral testing, 4 µl of the non-toxic reagent and 4 µl of HSV-1 or HSV-2 diluted to an MOI of 0.1 were added to 392 µl of medium 199 and 100 µl of this was added to each of three wells. Virus inhibition was determined by comparing the cell death of reagent-exposed cells with cell death of control cells only receiving virus. The 50%inhibitory concentration (IC50) was determined through a series of two-fold dilutions and calculation by linear regression analysis.

[2] = test system: HSV-1; test: Plaque reduction of HSV-1 on Vero cell monolayer; assay type: cell-based, Herpes simplex virus type 1 (MacIntyre strain); details: valacyclovir 16 μM, 20(S)-Rg3 50 μM; for Number of Plaques: approximately 50 PFU/well, 48 h, ± standard error; for Percent Reduction (plaques of HSV-1): compared to control
Description: as §1
The plaque assay procedure also was used to evaluate the percent plaque reduction; the only procedural change was that a constant virus concentration was used (50 PFU/well). Plaque reduction was measured by comparing the control (virus only), with valacyclovir (16 µM) with virus or 20(S)-Rg3 (50 µM) with virus. Sample wells were evaluated in quadruplicate. Following the 2 h virus adsorption, the methylcellulose-medium containing the same concentrations of valacyclovir or 20(S)-Rg3 was added to the appropriate wells. After 48 h, plaques were fixed, stained and counted.

[3] = test system: Vero cells; test: Cytotoxicity on Vero cells (PrestoBlue cell viability assay); assay type: cell-based
Description: as §2, §3

[4] = as above; assay type: cell-based; details: African green monkey
Description: as §2, §3

[5] = as above; assay type: cell-based; details: African green monkey, read-out: Percent Cell Viability; for viability at 48 h, 500 μM: 20(S)-Rg3 500 μM
[6] = test system: HSV-2; test: HSV-2 inhibition in Vero cells (PrestoBlue, compound and virus added simultaneously); assay type: cell-based, herpes simplex virus type 2; details: for Percent Inhibition of HSV-2: ± standard error
Description: as §1, §2, §3

[7] = test system: HSV-1; test: Time studies of HSV-1 inhibition (PrestoBlue); assay type: cell-based, Herpes simplex virus type 1 (MacIntyre strain); details: for Percent Inhibition of HSV-1: 20(S)-Rg3 50 μM
Description: For virus inhibition studies described above, reagent 20(S)-Rg3 and virus were added to cells simultaneously. In an attempt to evaluate the potential mode of action of 20(S)-Rg3, various combinations of valacyclovir, 20(S)-Rg3 and HSV-1 were tested at different time periods. The following combinations were evaluated at both one hour and four hours:
• ● Virus applied to cells first (for one hour or four hours), followed by addition of valacyclovir, 20(S)-Rg3 or both valacyclovir and 20(S)-Rg3 to the cells • ● Valacyclovir or 20(S)-Rg3 or both valacyclovir and 20(S)-Rg3 applied to cells first (for one or four hours), followed by virus • ● Valacyclovir or 20(S)-Rg3 incubated together with virus first for one or four hours then added to cells
All procedures described for evaluation of virus inhibition were followed in identical fashion as outlined for the PrestoBlue procedure except valacyclovir was used at a constant concentration of 16 µM and 20(S)-Rg3 at 50 µM.

[8] = test system: PC12 cells; details: cited from earlier work
[9] = test system: human carcinoma cells KB V20C; details: cited from earlier work
[10] = test system: normal WI 38 cells; parameters: method as in PMID 18365686; details: 120 μM; cited from earlier work
[11] = parameters: method as in New Drug Application #20-487/S-007, GlaxoSmithKline; details: ref New Drug Application #20-487/S-007, GlaxoSmithKline; cited from earlier work
[12] = each compound at its non-toxic concentration (Table 1 c1), MOI 0.1, value in parentheses = higher cell death than virus-alone control

With 20(S)-Rh2 the “Percent Inhibition of HSV-1” value [1, 12] was 46.2%.
For `CC(C)=CCC[C@@](C)(O)C1CC[C@]2(C)C1C(O)CC1C3(C)CCC(OC4OC(CO)C(O)C(O)C4OC4OC(CO)C(O)C(O)C4O)C(C)(C)C3CCC12C` (stereo partly drawn) [20(R)-Rg3], the “Percent Inhibition of HSV-1” value [1, 12] was 22.7%.
With `CC(C)=CCC[C@@](C)(O)C1CC[C@]2(C)C1C(O)CC1C3(C)CCC(O)C(C)(C)C3CCC12C` (stereo partly drawn) [20(R)-protopanaxadiol] the “Percent Inhibition of HSV-1” value [1, 12] was 14.4%.
For `CC(C)=CCC[C@](C)(O)C1CC[C@]2(C)C1C(O)CC1C3(C)CCC(OC4OC(CO)C(O)C(O)C4OC4OC(CO)C(O)C(O)C4O)C(C)(C)C3CCC12C` (stereo partly drawn) [20(S)-Rg3, Ginsenoside 20(S)-Rg3], the “Number of Plaques” value [2] was 1.5 ± 0.3, the “Percent Reduction (plaques of HSV-1)” value [2] was 97.3% and the selectivity ([3]; Vero cell toxicity IC50 versus antiviral IC50 (HSV-1 and HSV-2)) was 11 fold. For the same compound, the IC50 at 48 h [4] was about 400 µM, the viability at 48 h, 50 μM ([4]; 20(S)-Rg3 50 μM, parentheses = greater proliferation or metabolic activity than untreated cells, read-out: Percent Cell Viability) was 113% and the viability at 48 h, 100 μM ([4]; 20(S)-Rg3 100 μM, parentheses = greater proliferation or metabolic activity than untreated cells, read-out: Percent Cell Viability) was 114%. For the same compound, the viability at 48 h, 125 μM ([5]; 20(S)-Rg3 125 μM, parentheses = greater proliferation or metabolic activity than untreated cells) was 122%, the viability at 48 h, 250 μM ([5]; 20(S)-Rg3 250 μM, parentheses = greater proliferation or metabolic activity than untreated cells) was 129% and the viability at 48 h, 500 μM [5] was 17.7 ± 14.7%. The “Percent Inhibition of HSV-1” value ([1]; 20(S)-Rg3 25 μM, ± standard error) was 11.0 ± 2.6%, the “Percent Inhibition of HSV-1” value ([1]; 20(S)-Rg3 50 μM, ± standard error) was 80% and 82.3 ± 3.5% and the “Percent Inhibition of HSV-1” value ([1]; 20(S)-Rg3 100 μM, ± standard error) was 90.3 ± 9.9%. The IC50 [1] was about 35 µM, the “Percent Inhibition of HSV-1” value [1, 12] was 90.3% and the “Percent Inhibition of HSV-2” value ([6]; 20(S)-Rg3 25 μM) was 14.3 ± 3.3%. The “Percent Inhibition of HSV-2” value ([6]; 20(S)-Rg3 50 μM) was 80% and 81.7 ± 10.3%, the “Percent Inhibition of HSV-2” value ([6]; 20(S)-Rg3 100 μM) was 114.7 ± 6.7% and the IC50 ([6]; Human alphaherpesvirus 2, two-fold dilutions, linear regression, Vero cells, read-out: IC50 against HSV-2) was about 35 µM. The “Percent Inhibition of HSV-1” value ([7]; cells treated with compound 4 h prior to HSV-1 addition) was 90.1 ± 11.1% and the “Percent Inhibition of HSV-1” value ([7]; virus present on cells 4 h prior to compound addition) was 50.7 ± 4.4%.
In the case of `CC(C)=CCC[C@](C)(O)C1CC[C@]2(C)C1C(O)CC1C3(C)CCC(O)C(C)(C)C3CCC12C` (stereo partly drawn) [20(S)-protopanaxadiol], the “concentration not toxic for PC12 cells” value [8] is given as 20 µM.
With `CC(C)=CCC[C@](C)(O[C@@H]1O[C@H](CO[C@@H]2O[C@H](CO)[C@@H](O)[C@H](O)[C@H]2O)[C@@H](O)[C@H](O)[C@H]1O)[C@H]1CC[C@]2(C)[C@@H]1[C@H](O)C[C@@H]1[C@@]3(C)CC[C@H](O[C@@H]4O[C@H](CO)[C@@H](O)[C@H](O)[C@H]4O[C@@H]4O[C@H](CO)[C@@H](O)[C@H](O)[C@H]4O)C(C)(C)[C@@H]3CC[C@]12C` [Rb1] the “Percent Inhibition of HSV-1” value [1, 12] was 23% and 23.3%.
In the case of `CC(C)=CCC[C@](C)(O[C@@H]1O[C@H](CO[C@@H]2OC[C@H](O)[C@H](O)[C@H]2O)[C@@H](O)[C@H](O)[C@H]1O)[C@H]1CC[C@]2(C)[C@@H]1[C@H](O)C[C@@H]1[C@@]3(C)CC[C@H](O[C@@H]4O[C@H](CO)[C@@H](O)[C@H](O)[C@H]4O[C@@H]4O[C@H](CO)[C@@H](O)[C@H](O)[C@H]4O)C(C)(C)[C@@H]3CC[C@]12C` [Rb2], the “Percent Inhibition of HSV-1” value [1, 12] is reported as 26.4%.
For `CC(C)=CCC[C@](C)(O[C@@H]1O[C@H](CO[C@@H]2OC[C@@H](O)[C@H](O)[C@H]2O)[C@@H](O)[C@H](O)[C@H]1O)[C@H]1CC[C@]2(C)[C@@H]1[C@H](O)C[C@@H]1[C@@]3(C)CC[C@H](O[C@@H]4O[C@H](CO)[C@@H](O)[C@H](O)[C@H]4O[C@@H]4O[C@H](CO)[C@@H](O)[C@H](O)[C@H]4O)C(C)(C)[C@@H]3CC[C@]12C` [Rb3], the “Percent Inhibition of HSV-1” value [1, 12] was 30.9%.
With `CC(C)=CCC[C@](C)(O[C@@H]1O[C@H](CO[C@@H]2O[C@@H](CO)[C@H](O)[C@H]2O)[C@@H](O)[C@H](O)[C@H]1O)[C@H]1CC[C@]2(C)[C@@H]1[C@H](O)C[C@@H]1[C@@]3(C)CC[C@H](O[C@@H]4O[C@H](CO)[C@@H](O)[C@H](O)[C@H]4O[C@@H]4O[C@H](CO)[C@@H](O)[C@H](O)[C@H]4O)C(C)(C)[C@@H]3CC[C@]12C` [Rc] the “Percent Inhibition of HSV-1” value [1, 12] was 28.6%.
In the case of `CC(C)=CCC[C@](C)(O[C@@H]1O[C@H](CO)[C@@H](O)[C@H](O)[C@H]1O)[C@H]1CC[C@]2(C)[C@@H]1[C@H](O)C[C@@H]1[C@@]3(C)CC[C@H](O[C@@H]4O[C@H](CO)[C@@H](O)[C@H](O)[C@H]4O[C@@H]4O[C@H](CO)[C@@H](O)[C@H](O)[C@H]4O)C(C)(C)[C@@H]3CC[C@]12C` [Rd], the “Percent Inhibition of HSV-1” value [1, 12] is reported as 36.1%.
In the case of `CC(C)=CCC[C@](C)(O[C@@H]1O[C@H](CO)[C@@H](O)[C@H](O)[C@H]1O)[C@H]1CC[C@]2(C)[C@@H]1[C@H](O)C[C@@H]1[C@@]3(C)CC[C@H](O)C(C)(C)[C@@H]3[C@@H](O[C@@H]3O[C@H](CO)[C@@H](O)[C@H](O)[C@H]3O[C@@H]3O[C@@H](C)[C@H](O)[C@@H](O)[C@H]3O)C[C@]12C` [Re], the “Percent Inhibition of HSV-1” value [1, 12] is reported as 26.7%.
For `CC(C)=CCC[C@](C)(O[C@@H]1O[C@H](CO)[C@@H](O)[C@H](O)[C@H]1O)[C@H]1CC[C@]2(C)[C@@H]1[C@H](O)C[C@@H]1[C@@]3(C)CC[C@H](O)C(C)(C)[C@@H]3[C@@H](O[C@@H]3O[C@H](CO)[C@@H](O)[C@H](O)[C@H]3O)C[C@]12C` [Rg1], the “Percent Inhibition of HSV-1” value [1, 12] was 13.2%.
In the case of `CC(C)=CCCC(C)(O)C1CC[C@]2(C)C1C(O)CC1C3(C)CCC(OC4OC(CO)C(O)C(O)C4OC4OC(CO)C(O)C(O)C4O)C(C)(C)C3CCC12C` (some centres unmarked) [Rg3, ginsenoside Rg3], the cytotoxic concentration [9] is listed as 120 µM, the viability at 48 h, 500 μM [5] is listed as under 20% and the “effect on normal WI 38 cells” value [10] is listed as “no effect”.
With `CC(C)[C@H](N)C(=O)OCCOCn1cnc2c(=O)[nH]c(N)nc21` [Valacyclovir, reference compound] the “Number of Plaques” value [2] was 8.1 ± 1.1, the “Percent Reduction (plaques of HSV-1)” value [2] was 85.7% and the percent cell death ([3]; African green monkey, 48 h, 16 μM) was 1.2 ± 0.4%. For the same compound, the viability at 48 h, 16 μM [4] was about 99%, the “reported IC50 ranges” value [11] was 0.02 to 13.5 mg/L and the IC50 [1] was 13.2 µM. It also gave an inhibition at 16 µM ([7]; Human alphaherpesvirus 1, HSV-1 incubated together with valacyclovir (16 μM) 0 to 4 h prior to addition to cells, read-out: percent inhibition of HSV-1) of 52.3 to 54.7%.
